Test results reported in article PMC5954141, “Structure-guided Discovery of Dual-recognition Chemibodies” (Scientific Reports, 2018).

What follows are compounds tested against T1, DPP-IV enzyme (Rattus norvegicus, UniProt P14740) (assay: DPP-IV dipeptide (Ala-Pro-AFC) cleavage inhibition, fluorescent assay). Conditions: Table S6; Ala-Pro-AFC at 10 µM, one-hour incubation, triplicate; read-out: measured IC50's.
T1 construct: made in house
T1 sequence (P14740 whole entry): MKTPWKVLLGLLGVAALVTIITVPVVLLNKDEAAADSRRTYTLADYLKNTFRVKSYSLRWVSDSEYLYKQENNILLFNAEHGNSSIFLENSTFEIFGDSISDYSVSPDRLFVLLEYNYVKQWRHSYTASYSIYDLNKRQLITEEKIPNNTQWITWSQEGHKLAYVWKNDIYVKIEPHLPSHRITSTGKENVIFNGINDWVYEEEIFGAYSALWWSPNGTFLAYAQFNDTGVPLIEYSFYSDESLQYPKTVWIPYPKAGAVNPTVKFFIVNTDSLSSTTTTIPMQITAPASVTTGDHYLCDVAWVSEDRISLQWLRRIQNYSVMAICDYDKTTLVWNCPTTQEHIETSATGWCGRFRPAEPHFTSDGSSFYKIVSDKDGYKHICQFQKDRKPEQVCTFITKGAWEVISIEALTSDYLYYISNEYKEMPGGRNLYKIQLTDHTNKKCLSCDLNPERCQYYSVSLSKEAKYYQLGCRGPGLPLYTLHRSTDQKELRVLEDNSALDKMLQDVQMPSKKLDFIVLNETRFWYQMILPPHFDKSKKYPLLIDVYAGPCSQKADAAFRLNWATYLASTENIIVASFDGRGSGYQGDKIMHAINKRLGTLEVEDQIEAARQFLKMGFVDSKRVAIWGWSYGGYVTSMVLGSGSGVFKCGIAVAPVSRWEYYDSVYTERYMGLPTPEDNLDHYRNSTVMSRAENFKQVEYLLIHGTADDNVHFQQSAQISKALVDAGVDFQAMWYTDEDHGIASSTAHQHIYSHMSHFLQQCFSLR
Format: biochemical
Protocol: DPP-IV catalytic activity and inhibition of dipeptide cleavage was measured using a fluorescent assay performed at room temperature in 384-well, black polypropylene microplates. […] Assay data shown in Fig. 3 were performed with a one-hour incubation time. The data were fit to the four-parameter model using a Levenburg–Marquardt nonlinear regression algorithm. Figure 3b,c were generated using GraphPad Prism v6.
Rat DPP-IV enzyme and Fab mutant proteins were expressed and purified as previously described. […] For x-ray diffraction data collection, crystals were transferred into well solution with 30% (w/v) ethylene glycol and then flash frozen in liquid nitrogen.
`CC(=O)NCCOCCOCCOCCNC(=O)CN1CCN(C(=O)C[C@H](N)Cc2cc(F)c(F)cc2F)CC1` [compound 6 (n = 3)] showed an IC50 of 141 nM.
For `CC(=O)NCCOCCOCCOCCOCCNC(=O)CN1CCN(C(=O)C[C@H](N)Cc2cc(F)c(F)cc2F)CC1` [compound 6 (n = 4)], the IC50 was 100 nM.
With `CC(=O)NCCOCCOCCOCCOCCOCCNC(=O)CN1CCN(C(=O)C[C@H](N)Cc2cc(F)c(F)cc2F)CC1` [compound 6 (n = 5)] the IC50 was 146 nM.
In the case of `CC(=O)NCCOCCOCCOCCOCCOCCOCCNC(=O)CN1CCN(C(=O)C[C@H](N)Cc2cc(F)c(F)cc2F)CC1` [compound 6 (n = 6)], the IC50 is reported as 119 nM.
With `CC(=O)NCCOCCOCCOCCOCCOCCOCCOCCNC(=O)CN1CCN(C(=O)C[C@H](N)Cc2cc(F)c(F)cc2F)CC1` [compound 6 (n = 7)] the IC50 was 134 nM.
`CC(=O)NCCOCCOCCOCCOCCOCCOCCOCCOCCNC(=O)CN1CCN(C(=O)C[C@H](N)Cc2cc(F)c(F)cc2F)CC1` [compound 6 (n = 8)] showed an IC50 of 124 nM.
In the case of `CC(=O)NCCOCCOCCOCCOCCOCCOCCOCCOCCOCCOCCNC(=O)CN1CCN(C(=O)C[C@H](N)Cc2cc(F)c(F)cc2F)CC1` [compound 6 (n = 10)], the IC50 is reported as 152 nM.
`CC(=O)NCCOCCOCCOCCOCCOCCOCCOCCOCCOCCOCCOCCNC(=O)CN1CCN(C(=O)C[C@H](N)Cc2cc(F)c(F)cc2F)CC1` [compound 6 (n = 11)] was tested, and the IC50 was 160 nM.

Same assay, conditions: dipeptide substrate cleavage; read-out: DPP-IV IC50
With `CNC(=O)CN1CCN(C(=O)C[C@H](N)Cc2cc(F)c(F)cc2F)CC1.Cl` [compound 2, (R)-2-(4-(3-amino-4-(2,4,5-trifluorophenyl)butanoyl)piperazin-1-yl)-N-methylacetamide hydrochloride] the IC50 was 130 nM.
For `COCCOCCOCCOCCNC(=O)CN1CCN(C(=O)C[C@H](N)Cc2cc(F)c(F)cc2F)CC1` [compound 4 (n = 3)], the IC50 was 105 nM.
Work on `COCCOCCOCCOCCOCCOCCOCCOCCNC(=O)CN1CCN(C(=O)C[C@H](N)Cc2cc(F)c(F)cc2F)CC1` [compound 4 (n = 7)] yielded an IC50 of 70 nM.

Same assay, conditions: same experimental conditions
With `CNC(=O)CN1CCN(C(=O)C[C@H](N)Cc2cc(F)c(F)cc2F)CC1.Cl` [compound 2, (R)-2-(4-(3-amino-4-(2,4,5-trifluorophenyl)butanoyl)piperazin-1-yl)-N-methylacetamide hydrochloride] the “potency loss as compared with sitagliptin” value was “seven-fold”.
